pIC50: −log10 of the molar value.
Tested on: PDC 899932-113-R3-J6 complex spheroid viability
Test: Anticancer human tumor 899932-113-R3-J6-PDC patient-derived melanoma cell line growth inhibition [RAS]
Settings: for pIC50: curve of first compound; for viability, T/C: stronger effect = lower value
Text: RAS pathway inhibitors in Combinations in Complex Spheroids
A high-throughput screen of multi-cell type tumor spheroids was designed to identify active combinations of RAS pathway inhibitors and targeted small molecules. Complex spheroids include a stromal component modeled by human endothelial cells (HUVEC) and fibroblasts modeled by human mesenchymal stem cells (MSCs). The concentration ranges selected for each drug and investigational agent were based upon clinically achievable concentrations if the clinical Cmax of the agent was known.
Compounds. The drugs and investigational agents: abemaciclib (NSC768073), cobimetinib (NSC768068), divarasib (GDC6063, NSC841802), docetaxel (NSC628503), GDC-1971 (RLY-1971, NSC841576), gemcitabine (NSC613327), inavolisib (NSC800729), ipatasertib (NSC767898), KB-0742 (NSC834161), MRTX-1133 (NSC836407), osimertinib (NSC779217), RMC-4630 (NSC839698), RMC-6236 (NSC851965), RMC-6291 (NSC852671), Ro-3306 (NSC812927), sapanisertib (NSC764658), SN-38 (NSC673596), staurosporine (NSC755774), SY5609 (NSC837396), and tovorafenib (DAY101, NSC766906), were obtained from the National Cancer Institute (NCI) Developmental Therapeutics Program Chemical Repository. The FDA-approved anticancer drug set is available from the NCI Developmental Therapeutics Program. […] The stock solutions were prepared in dimethyl sulfoxide (DMSO, Sigma-Aldrich, St. Louis, MO, cat. D2650) at 800-fold the tested concentration and stored at -70 degrees C prior to their use. All drugs and investigational agents were tested over a range starting from a high concentration at or near the clinical Cmax and decreasing in half-log increments. If the clinical Cmax for an agent had not been determined, the highest concentration tested was 10 microM.
Cell Culture. All cells were maintained in an incubator at 37 degrees C and 5% CO2 with 95% humidity. The PDC lines were cultured according to standard operating procedures established by the NCI PDMR. All PDCs were thawed and cultured in Matrigel-coated flasks prepared with a working solution of 1X Ham's F-12 nutrient mix, without supplementation (Invitrogen, Waltham, MA, cat. 11765054), 100 U/mL penicillin-streptomycin (Invitrogen, cat. 15140122), and 2.5% Matrigel (Corning Inc., Corning, NY, cat. 354248) for the first three passages. The 362531-283-R-J2-PDC and 782815-120-R-J1-PDC lines were cultured in 6C/Colon 1B media, which includes advanced DMEM/F-12 (Thermo Fisher Scientific, cat. 12634028), 10 mM HEPES (Thermo Fisher Scientific, cat. 15630080), 1X GlutaMAX supplement (Thermo Fisher Scientific, cat. 35050061), 0.1 mg/mL primocin (InvivoGen, San Diego, CA, cat. ant-pm-2), 10% defined fetal bovine serum, heat inactivated (HyClone Laboratories Inc., Logan, UT, cat. SH30070.03HI), 50% L-WRN conditioned media (ATCC, cat. CRL-3276), 1.25 mM N-Acetyl-L-cysteine (Sigma-Aldrich, cat. A9165), 10 mM nicotinamide (Sigma-Aldrich, cat. N0636), 1X B-27 supplement (Thermo Fisher Scientific, cat. 17504044), 1X N-2 supplement (Thermo Fisher Scientific, cat. 17502048), 50 ng/mL human EGF (Thermo Fisher Scientific, cat. PHG0311), and 10 microM Y-27632 dihydrochloride (Tocris Bioscience, cat. 1254). The K12877-001-R-J1-PDC line was cultured in 6I media, which includes all 6C/Colon 1B media plus 10 ng/mL human FGF-10 (PeproTech, cat. 100-26), 1 ng/mL human FGF-2 (PeproTech, cat. 100-18B), 1 µM prostaglandin E2 (Tocris Bioscience, cat. 2296), […] hydrocortisone (Sigma-Aldrich, cat. H4001), and […] bovine insulin (Sigma-Aldrich, cat. I6634). The K86415-001-R-J1-PDC line was cultured in 6D media, which includes all 6C/Colon 1B media components minus the L-WRN conditioned media. The 485176-168-R4-J1-PDC was cultured in PANC media, which includes all 6C/Colon 1B media plus 100 ng/mL human FGF-10 (PeproTech, cat. 100-26), 500 nM SB-431542 (Selleckchem, cat. S1067), and 10 nM gastrin (Tocris Bioscience, cat. 3006). […]
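Wherever viability, T/C is given: spheroids exposed to agents for seven days before readout; 100% = DMSO vehicle control wells.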

- pIC50 (second compound 0.00316 µM): 5.78
- pIC50 (second compound 0.01 µM): 5.70
- pIC50 (second compound 0.0316 µM): 5.54
- pIC50 (second compound 0.1 µM): 5.63
- pIC50 (second compound 0.316 µM): 5.79
- pIC50 (second compound 1 µM): 5.82
Structure (SMILES): CC(Nc1ccc2c(c1)OCCn1cc(N3C(=O)OCC3C(F)F)nc1-2)C(N)=O (configuration not stated) + C=CC(=O)N1CCN(c2nc(OCC3CCCN3C)nc3c(F)c(-c4nc(N)cc(C)c4C(F)(F)F)c(Cl)cc23)C(C)C1
- viability, T/C (second compound 0.00316 µM, first compound 0.0316 µM): 97%
- viability, T/C (second compound 0.00316 µM, first compound 0.1 µM): 72.4%
- viability, T/C (second compound 0.00316 µM, first compound 0.316 µM): 69.6%
- viability, T/C (second compound 0.00316 µM, first compound 1 µM): 55.6%
- viability, T/C (second compound 0.00316 µM, first compound 3.16 µM): 43%
- viability, T/C (second compound 0.00316 µM, first compound 10 µM): 36.7%
- viability, T/C (second compound 0.01 µM, first compound 0.0316 µM): 81.4%
- viability, T/C (second compound 0.01 µM, first compound 0.1 µM): 75.8%
- viability, T/C (second compound 0.01 µM, first compound 0.316 µM): 65.6%
- viability, T/C (second compound 0.01 µM, first compound 1 µM): 55.8%
- viability, T/C (second compound 0.01 µM, first compound 3.16 µM): 47.5%
- viability, T/C (second compound 0.01 µM, first compound 10 µM): 32.8%
- viability, T/C (second compound 0.0316 µM, first compound 0.0316 µM): 90.3%
- viability, T/C (second compound 0.0316 µM, first compound 0.1 µM): 75.8%
- viability, T/C (second compound 0.0316 µM, first compound 0.316 µM): 70.1%
- viability, T/C (second compound 0.0316 µM, first compound 1 µM): 59.9%
- viability, T/C (second compound 0.0316 µM, first compound 3.16 µM): 49.7%
- viability, T/C (second compound 0.0316 µM, first compound 10 µM): 38.9%
- viability, T/C (second compound 0.1 µM, first compound 0.0316 µM): 88.2%
- viability, T/C (second compound 0.1 µM, first compound 0.1 µM): 77.2%
- viability, T/C (second compound 0.1 µM, first compound 0.316 µM): 69.1%
- viability, T/C (second compound 0.1 µM, first compound 1 µM): 55.6%
- viability, T/C (second compound 0.1 µM, first compound 3.16 µM): 48.3%
- viability, T/C (second compound 0.1 µM, first compound 10 µM): 38.6%
- viability, T/C (second compound 0.316 µM, first compound 0.0316 µM): 82.3%
- viability, T/C (second compound 0.316 µM, first compound 0.1 µM): 75.9%
- viability, T/C (second compound 0.316 µM, first compound 0.316 µM): 68.5%
- viability, T/C (second compound 0.316 µM, first compound 1 µM): 51.9%
- viability, T/C (second compound 0.316 µM, first compound 3.16 µM): 46.5%
- viability, T/C (second compound 0.316 µM, first compound 10 µM): 38.6%
- viability, T/C (second compound 1 µM, first compound 0.0316 µM): 95.5%
- viability, T/C (second compound 1 µM, first compound 0.1 µM): 81.2%
- viability, T/C (second compound 1 µM, first compound 0.316 µM): 61.4%
- viability, T/C (second compound 1 µM, first compound 1 µM): 53.2%
- viability, T/C (second compound 1 µM, first compound 3.16 µM): 48.7%
- viability, T/C (second compound 1 µM, first compound 10 µM): 32%

Source: PubChem BioAssay AID2060895 (Molecular Pharmacology Branch, DTP, NCI, 2025)
